SMILES strings stand for the structures. Like-named read-outs stand apart in the source and are kept apart here.

Experiment [1] deals with locomotor activity in mice. The experiment in a line: Inhibition of locomotor activity in mice. In kind it is in vivo. To be noted: for ED50: Mus musculus, ip, read-out: Inhibition of Locomotor Activity in Mice ED50. The protocol: (§1) The compounds of Formula I are valuable dopaminergic agents. […] Thus, the compounds of Formula I were tested for their ability to inhibit locomotor activity in mice according to the assay described by J. R. McLean, et al, Pharmacology, Biochemistry and Behavior, Volume 8, pages 97-99 (1978); for their ability to inhibit haloperidol binding in a receptor assay described by D. R. Burt, et al, Molecular Pharmacology, Volume 12, pages 800-812 (1976); and for their ability to inhibit dopamine synthesis in rats according to the protocol described by J. R. Walters and R. H. Roth, Naunyn--Schmiedeberg's Archives of Pharmacology, Volume 296, pages 5-14 (1976). The above test methods are incorporated herein by reference.

Experiment [2] has as its target T1, haloperidol binding in a receptor assay (Bos taurus, UniProt P20288).
T1 construct: from tissue; host or cells: calf brain (caudate/striatal) membranes, inferred from the cited method
The experiment in a line: Inhibition of haloperidol binding. The protocol:
as §1

Experiment [3] concerns dopamine synthesis in rats. In words: Inhibition of dopamine synthesis in rats. The experiment is classed as in vivo. To be noted: IP. The procedure: as §1

T1 sequence (P20288 whole entry): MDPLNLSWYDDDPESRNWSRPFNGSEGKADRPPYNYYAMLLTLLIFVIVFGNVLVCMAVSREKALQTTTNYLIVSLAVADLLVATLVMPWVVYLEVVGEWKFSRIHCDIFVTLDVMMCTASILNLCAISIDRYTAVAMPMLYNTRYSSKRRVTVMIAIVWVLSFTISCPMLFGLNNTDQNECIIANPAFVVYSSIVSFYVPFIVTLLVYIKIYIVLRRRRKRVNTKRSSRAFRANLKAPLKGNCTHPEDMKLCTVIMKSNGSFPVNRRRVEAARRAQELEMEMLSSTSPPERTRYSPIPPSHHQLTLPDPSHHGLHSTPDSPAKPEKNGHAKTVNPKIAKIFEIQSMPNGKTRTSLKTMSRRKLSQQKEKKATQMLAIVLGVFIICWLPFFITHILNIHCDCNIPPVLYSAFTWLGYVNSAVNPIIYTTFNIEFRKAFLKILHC

For `Nc1nc2c(s1)CC(CCN1CCN(c3ccccn3)CC1)CC2` (racemic) [Example 9, (±)-4,5,6,7-Tetrahydro-6-[2-[4-(2-pyridinyl)-1-piperazinyl]ethyl]-2-benzothiazolamine], in experiment [1] (mice, IP), the median effective dose (ED50) (in general, the midpoint of the dose-response relation) came to 0.21 mg/kg. Moreover, the half-maximal inhibitory concentration (IC50) (commonly the concentration that gives 50% inhibition) in experiment [2] turned out to be 105 nM. Also, the “Inhibition of Dopamine Synthesis in Rats” value in experiment [3] (at 1.3 mg/kg) turned out to be 50%. Take `O=C(Nc1nc2c(s1)CC(N1CCN(c3ccccn3)CC1)CC2)c1ccccc1` (racemic) [Example 2, (±)-N-[4,5,6,7-Tetrahydro-6-[4-(2-pyridinyl)-1-piperazinyl]-2-benzothiazolyl]benzamide]: in experiment [1] (mice, IP), the ED50 was 3.7 mg/kg. Moreover, the “Inhibition of Dopamine Synthesis in Rats” value in experiment [3] (at 10 mg/kg) is reported as 59%. Regarding `Nc1nc2c(s1)CC(CN1CC=C(c3ccccc3)CC1)CC2` (racemic) [Example 8, (±)-6-[(3,6-Dihydro-4-phenyl-1(2H)-pyridinyl)methyl]-4,5,6,7-tetrahydro-2-benzothiazolamine], the ED50 in experiment [1] came to 0.75 mg/kg. Take `Nc1nc2c(s1)CC(N1CCN(c3ccccc3)CC1)CC2` (racemic) [Example 1b, (±)-4,5,6,7-Tetrahydro-6-(4-phenyl-1-piperazinyl)-2-benzothiazolamine]: the 50% effective dose (ED50) in experiment [1] (mice, IP) was 6.1 mg/kg. Turning to `Nc1nc2c(s1)CC(CCN1CCN(c3ccccn3)CC1)CC2` (single isomer, unassigned; (-)) [Example 11a, (-)-4,5,6,7-Tetrahydro-6-[2-[4-(2-pyridinyl)-1-piperazinyl]ethyl]-2-benzothiazolamine], the ED50 in experiment [1] (mice, IP) came out at 0.2 mg/kg. In experiment [3] (at 0.2 mg/kg), the “Inhibition of Dopamine Synthesis in Rats” value was determined as 50%.

With `Nc1nc2c(s1)CC(CCN1CC=C(c3ccccc3)CC1)CC2` (racemic) [Example 10, (±)-6-[2-(3,6-Dihydro-4-phenyl-1(2H)-pyridinyl)ethyl]-4,5,6,7-tetrahydro-2-benzothiazolamine], the 50% effective dose (ED50) in experiment [1] was 0.4 mg/kg. In the case of `Nc1nc2c(s1)CC(N1CCN(c3ccccn3)CC1)CC2` (single isomer, unassigned; (+)) [Example 3, (+)-4,5,6,7-Tetrahydro-6-[4-(2-pyridinyl)-1-piperazinyl]-2-benzothiazolamine], the ED50 in experiment [1] (mice, IP) is 9.9 mg/kg. Also, the IC50 in experiment [2] is about 800 nM. For the same compound, the “Inhibition of Dopamine Synthesis in Rats” value in experiment [3] (at 7.0 mg/kg) was 50%. As to `Nc1nc2c(s1)CC(CCN1CCN(c3ccccn3)CC1)CC2` (single isomer, unassigned; (+)) [Example 11, (+)-4,5,6,7-Tetrahydro-6-[2-[4-(2-pyridinyl)-1-piperazinyl]ethyl]-2-benzothiazolamine], the “Inhibition of Locomotor Activity in Mice ED50” value in experiment [1] (mice, IP) stood at 0.37 mg/kg. Moreover, the “Inhibition of Dopamine Synthesis in Rats” value in experiment [3] (at 0.8 mg/kg) was 50%. For the compound `Nc1nc2c(s1)CC(N1CC=C(c3ccccc3)CC1)CC2` (racemic) [Example 1a, (±)-6-(3,6-Dihydro-4-phenyl-1(2H)-pyridinyl)-4,5,6,7-tetrahydro-2-benzothiazolamine], the 50% effective dose (ED50) in experiment [1] was determined as 1.5 mg/kg. Moreover, the “Inhibition of Dopamine Synthesis in Rats” value in experiment [3] (at 10 mg/kg) is recorded as 69%. With `Nc1nc2c(s1)CC(N1CCN(c3ccccn3)CC1)CC2` (single isomer, unassigned; (-)) [Example 4, (-)-4,5,6,7-Tetrahydro-6-[4-(2-pyridinyl)-1-piperazinyl]-2-benzothiazolamine], the “Inhibition of Locomotor Activity in Mice ED50” value in experiment [1] (mice, IP) was determined as 7.4 mg/kg. The compound also showed an IC50 in experiment [2] of about 1500 nM. In addition, the “Inhibition of Dopamine Synthesis in Rats” value in experiment [3] (at 4.8 mg/kg) is reported as 50%. Take `Nc1nc2c(s1)CC(CN1CCN(c3ccccn3)CC1)CC2` (racemic) [Example 7, (±)-4,5,6,7-Tetrahydro-6-[[4-(2-pyridinyl)-1-piperazinyl]methyl]-2-benzothiazolamine]: the ED50 in experiment [1] (mice, IP) was 7.2 mg/kg. The “Inhibition of Dopamine Synthesis in Rats” value in experiment [3] (at 10 mg/kg) is reported as 48%. Take `Nc1nc2c(s1)CC(N1CCN(c3ccccn3)CC1)CC2` (racemic) [Example 1, (±)-4,5,6,7-Tetrahydro-6-[4-(2-pyridinyl)-1-piperazinyl]-2-benzothiazolamine]: in experiment [1] (mice, IP), the 50% effective dose (ED50) was 6.6 mg/kg. This compound gave a half-inhibitory concentration (IC50) in experiment [2] of 876 nM. For the same compound, the “Inhibition of Dopamine Synthesis in Rats” value in experiment [3] (at 4.4 mg/kg) came out at 50%. As to `c1ccc(N2CCN(CC3CCc4ncsc4C3)CC2)nc1` (racemic) [Example 5, (±)-4,5,6,7-tetrahydro-6-[[4-(2-pyridinyl)-1-piperazinyl]methyl]benzothiazole], the ED50 in experiment [1] (mice, IP) came out at 7.4 mg/kg.

For `Nc1nc2c(s1)CC(N1CCN(c3ncccn3)CC1)CC2` (racemic) [Example 1c, (±)-4,5,6,7-Tetrahydro-6-[4-(2-pyrimidinyl)-1-piperazinyl]-2-benzothiazolamine], the median effective dose (ED50) in experiment [1] (mice, IP) was 30 mg/kg.
